# Key:
# Staphylococcus aureus [1] = assay: Antibacterial activity against Staphylococcus aureus ATCC 25923 assessed as effect on planktonic growth at 0.34 ug/ml after 20 hrs relative to control; format: functional
# Streptococcus mutans [2] = assay: Antibacterial activity against Streptococcus mutans ATCC 25175 assessed as effect on planktonic growth at 10.9 ug/ml after 20 hrs relative to control; format: functional
# Streptococcus mutans [3] = assay: Antibacterial activity against Streptococcus mutans ATCC 25175 assessed as effect on planktonic growth at 0.68 ug/ml after 20 hrs relative to control; format: functional
# Pseudomonas aeruginosa [4] = assay: Antibacterial activity against Pseudomonas aeruginosa ATCC 27853 assessed as effect on planktonic growth at 0.68 ug/ml after 20 hrs relative to control; format: functional
# Staphylococcus aureus [5] = assay: Antibacterial activity against Staphylococcus aureus ATCC 25923 assessed as effect on planktonic growth at 43.8 ug/ml after 20 hrs relative to control; format: functional
# Staphylococcus aureus [6] = assay: Antibacterial activity against Staphylococcus aureus ATCC 25923 assessed as effect on planktonic growth at 10.9 ug/ml after 20 hrs relative to control; format: functional
# [7] = tested on: Staphylococcus epidermidis; assay: Antibacterial activity against Staphylococcus epidermidis ATCC 35547 assessed as effect on planktonic growth at 0.34 ug/ml after 20 hrs relative to control; format: functional
# Pseudomonas aeruginosa [8] = assay: Antibacterial activity against Pseudomonas aeruginosa ATCC 27853 assessed as effect on planktonic growth at 10.9 ug/ml after 20 hrs relative to control; format: functional
# Streptococcus mutans [9] = assay: Antibacterial activity against Streptococcus mutans ATCC 25175 assessed as effect on planktonic growth at 21.9 ug/ml after 20 hrs relative to control; format: functional
# Streptococcus mutans [10] = assay: Antibacterial activity against Streptococcus mutans ATCC 25175 assessed as effect on planktonic growth at 87.5 ug/ml after 20 hrs relative to control; format: functional
# [11] = tested on: Staphylococcus epidermidis; assay: Antibacterial activity against Staphylococcus epidermidis ATCC 35547 assessed as effect on planktonic growth at 87.5 ug/ml after 20 hrs relative to control; format: functional
# Streptococcus mutans [12] = assay: Antibacterial activity against Streptococcus mutans ATCC 25175 assessed as effect on planktonic growth at 1.37 ug/ml after 20 hrs relative to control; format: functional
# [13] = tested on: Staphylococcus epidermidis; assay: Antibacterial activity against Staphylococcus epidermidis ATCC 35547 assessed as effect on planktonic growth at 43.8 ug/ml after 20 hrs relative to control; format: functional
# Staphylococcus aureus [14] = assay: Antibacterial activity against Staphylococcus aureus ATCC 25923 assessed as effect on planktonic growth at 21.9 ug/ml after 20 hrs relative to control; format: functional
# Pseudomonas aeruginosa [15] = assay: Antibacterial activity against Pseudomonas aeruginosa ATCC 27853 assessed as effect on planktonic growth at 43.8 ug/ml after 20 hrs relative to control; format: functional
# Pseudomonas aeruginosa [16] = assay: Antibacterial activity against Pseudomonas aeruginosa ATCC 27853 assessed as effect on planktonic growth at 2.73 ug/ml after 20 hrs relative to control; format: functional
# Streptococcus mutans [17] = assay: Antibacterial activity against Streptococcus mutans ATCC 25175 assessed as effect on planktonic growth at 43.8 ug/ml after 20 hrs relative to control; format: functional
# Pseudomonas aeruginosa [18] = assay: Antibacterial activity against Pseudomonas aeruginosa ATCC 27853 assessed as effect on planktonic growth at 0.34 ug/ml after 20 hrs relative to control; format: functional
# Pseudomonas aeruginosa [19] = assay: Antibacterial activity against Pseudomonas aeruginosa ATCC 27853 assessed as inhibition of biofilm formation after 20 hrs by crystal-violet staining method; format: functional, organism-based
# [20] = tested on: Staphylococcus epidermidis; assay: Antibacterial activity against Staphylococcus epidermidis ATCC 35547 assessed as inhibition of biofilm formation after 20 hrs by crystal-violet staining method; format: functional, organism-based
# Streptococcus mutans [21] = assay: Antibacterial activity against Streptococcus mutans ATCC 25175 assessed as effect on planktonic growth at 2.73 ug/ml after 20 hrs relative to control; format: functional
# Staphylococcus aureus [22] = assay: Antibacterial activity against Staphylococcus aureus ATCC 25923 assessed as effect on planktonic growth at 5.5 ug/ml after 20 hrs relative to control; format: functional
# Staphylococcus aureus [23] = assay: Antibacterial activity against Staphylococcus aureus ATCC 25923 assessed as effect on planktonic growth at 0.17 ug/ml after 20 hrs relative to control; format: functional
# [24] = tested on: Staphylococcus epidermidis; assay: Antibacterial activity against Staphylococcus epidermidis ATCC 35547 assessed as effect on planktonic growth at 0.17 ug/ml after 20 hrs relative to control; format: functional
# Streptococcus mutans [25] = assay: Antibacterial activity against Streptococcus mutans ATCC 25175 assessed as effect on planktonic growth at 5.5 ug/ml after 20 hrs relative to control; format: functional
# [26] = tested on: Staphylococcus epidermidis; assay: Antibacterial activity against Staphylococcus epidermidis ATCC 35547 assessed as effect on planktonic growth at 10.9 ug/ml after 20 hrs relative to control; format: functional
# Pseudomonas aeruginosa [27] = assay: Antibacterial activity against Pseudomonas aeruginosa ATCC 27853 assessed as effect on planktonic growth at 1.37 ug/ml after 20 hrs relative to control; format: functional
# Staphylococcus aureus [28] = assay: Antibacterial activity against Staphylococcus aureus ATCC 25923 assessed as effect on planktonic growth at 2.73 ug/ml after 20 hrs relative to control; format: functional
# [29] = tested on: Staphylococcus epidermidis; assay: Antibacterial activity against Staphylococcus epidermidis ATCC 35547 assessed as effect on planktonic growth at 1.37 ug/ml after 20 hrs relative to control; format: functional
# Pseudomonas aeruginosa [30] = assay: Antibacterial activity against Pseudomonas aeruginosa ATCC 27853 assessed as effect on planktonic growth at 21.9 ug/ml after 20 hrs relative to control; format: functional
# Staphylococcus aureus [31] = assay: Antibacterial activity against Staphylococcus aureus ATCC 25923 assessed as effect on planktonic growth at 1.37 ug/ml after 20 hrs relative to control; format: functional
# Pseudomonas aeruginosa [32] = assay: Antibacterial activity against Pseudomonas aeruginosa ATCC 27853 assessed as effect on planktonic growth at 5.5 ug/ml after 20 hrs relative to control; format: functional
# Pseudomonas aeruginosa [33] = assay: Antibacterial activity against Pseudomonas aeruginosa ATCC 27853 assessed as effect on planktonic growth at 87.5 ug/ml after 20 hrs relative to control; format: functional
# [34] = tested on: Staphylococcus epidermidis; assay: Antibacterial activity against Staphylococcus epidermidis ATCC 35547 assessed as effect on planktonic growth at 21.9 ug/ml after 20 hrs relative to control; format: functional
# [35] = tested on: Staphylococcus epidermidis; assay: Antibacterial activity against Staphylococcus epidermidis ATCC 35547 assessed as effect on planktonic growth at 5.5 ug/ml after 20 hrs relative to control; format: functional
# Staphylococcus aureus [36] = assay: Antibacterial activity against Staphylococcus aureus ATCC 25923 assessed as effect on planktonic growth at 0.68 ug/ml after 20 hrs relative to control; format: functional
# Staphylococcus aureus [37] = assay: Antibacterial activity against Staphylococcus aureus ATCC 25923 assessed as effect on planktonic growth at 87.5 ug/ml after 20 hrs relative to control; format: functional
# [38] = tested on: Staphylococcus epidermidis; assay: Antibacterial activity against Staphylococcus epidermidis ATCC 35547 assessed as effect on planktonic growth at 2.73 ug/ml after 20 hrs relative to control; format: functional
# Streptococcus mutans [39] = assay: Antibacterial activity against Streptococcus mutans ATCC 25175 assessed as effect on planktonic growth at 0.34 ug/ml after 20 hrs relative to control; format: functional
# Pseudomonas aeruginosa [40] = assay: Antibacterial activity against Pseudomonas aeruginosa ATCC 27853 assessed as effect on planktonic growth at 0.17 ug/ml after 20 hrs relative to control; format: functional
# Streptococcus mutans [41] = assay: Antibacterial activity against Streptococcus mutans ATCC 25175 assessed as effect on planktonic growth at 0.17 ug/ml after 20 hrs relative to control; format: functional
# [42] = tested on: Staphylococcus epidermidis; assay: Antibacterial activity against Staphylococcus epidermidis ATCC 35547 assessed as effect on planktonic growth at 0.68 ug/ml after 20 hrs relative to control; format: functional
compound,measurement,setting,value
COc1ccc(Br)cc1C1=C(Br)C(=O)N(CC(C)C)/C1=C\c1ccc(Br)cc1,Activity,Staphylococcus aureus [1],0.3%
same,Activity,Streptococcus mutans [2],-5%
same,Activity,Streptococcus mutans [3],5.8%
same,Activity,Pseudomonas aeruginosa [4],-0.2%
same,Activity,Staphylococcus aureus [5],5.5%
same,Activity,Staphylococcus aureus [6],1%
same,Activity,[7],14.1%
same,Activity,Pseudomonas aeruginosa [8],-2.6%
same,Activity,Streptococcus mutans [9],-14.6%
same,Activity,Streptococcus mutans [10],-15.8%
same,Activity,[11],88.4%
same,Activity,Streptococcus mutans [12],8.3%
same,Activity,[13],78.7%
same,Activity,Staphylococcus aureus [14],0.8%
same,Activity,Pseudomonas aeruginosa [15],3.4%
same,Activity,Pseudomonas aeruginosa [16],0.8%
same,Activity,Streptococcus mutans [17],-31.4%
same,Activity,Pseudomonas aeruginosa [18],0.3%
same,inhibition,Pseudomonas aeruginosa [19],Dose-dependent effect
same,IC50,"Pseudomonas aeruginosa [19]; ATCC 27853, 20 h",> 87.5 µg/mL
same,inhibition,[20],Dose-dependent effect
same,IC50,"[20]; ATCC 35547, 20 h",67.5 µg/mL
same,Activity,Streptococcus mutans [21],-5.3%
same,Activity,Staphylococcus aureus [22],-2.1%
same,Activity,Staphylococcus aureus [23],-3.9%
same,Activity,[24],3.3%
same,Activity,Streptococcus mutans [25],-3.3%
same,Activity,[26],12.3%
same,Activity,Pseudomonas aeruginosa [27],1%
same,Activity,Staphylococcus aureus [28],-2.4%
same,Activity,[29],5.7%
same,Activity,Pseudomonas aeruginosa [30],-1.3%
same,Activity,Staphylococcus aureus [31],-0.5%
same,Activity,Pseudomonas aeruginosa [32],0.6%
same,Activity,Pseudomonas aeruginosa [33],12.6%
same,Activity,[34],32.6%
same,Activity,[35],0.9%
same,Activity,Staphylococcus aureus [36],-0.5%
same,Activity,Staphylococcus aureus [37],6%
same,Activity,[38],11.2%
same,Activity,Streptococcus mutans [39],-0.3%
same,Activity,Pseudomonas aeruginosa [40],4.1%
same,Activity,Streptococcus mutans [41],6%
same,Activity,[42],10%

# Source: ChEMBL document CHEMBL3112480, “γ-Alkylidene-γ-lactones and isobutylpyrrol-2(5H)-ones analogues to rubrolides as inhibitors of biofilm formation by gram-positive and gram-negative bacteria” (Bioorg Med Chem Lett, 2014)
